Patent publication US9603849B2, “Uses of orvepitant” (NERRE THERAPEUTICS LIMITED, priority 2012, dated 2017)

Molecular target: NK-1 receptor (Meriones unguiculatus, UniProt Q5DUB1)
Assay: GR73632-induced hindlimb scratching behaviour in the Mongolian gerbil
Assay type: in vivo
Conditions: all doses tested (from 0.1 to 10.0 mg/kg)
Excerpt: 5) Particularly the antipruritic effect of orvepitant maleate was determinated in GR73632-induced scratching behaviour in the Mongolian gerbil. According to this metholody the scratching behaviour was induced by GR73632 which is a specific agonist of the NK-1 receptor.
72 male Mongolian gerbils (58-78 g) after a minimum habituation period of 10 days prior to study commencement, were acclimatised to the procedure room in their home cages, with food and water available ad libitum. The day before the experiment was due to commence a 1 cm×1 cm squared area between the shoulder blades was shaved free of hair.
Habituation to the apparatus (custom made observation chambers; approximately 30×30 cm; 2 animals per observation) took place 30 minutes prior to induction of scratching behaviours using GR73632.
A 10 mg/kg stock solution of orvepitant maleate was made by dissolving 20 mg of orvepitant maleate Form 1 in 20 mls of vehicle (5% DMSO & 95% HPMC (0.5%)). This stock solution was serially diluted to prepare doses of 0.1, 0.3, 1.0, 3.0 or 10 mg/kg orvepitant maleate.
At T=−60 mins mongolian gerbils were dosed with orvepitant maleate (0.1, 0.3, 1.0, 3.0 or, 10 mg/kg p.o.). Gerbils were allocated to dosing groups based on a Latin square design. 30 Minutes later (T=−30 mins) gerbils were placed into the observation chamber for 30 minutes habituation. At T=0 Gerbils were then dosed with GR73632 (30 nmol/100 uL; i.d.) between the shoulder blades and their subsequent hindlimb scratching behaviour recorded using GeoVision surveillance software over a 30 minute period.
Playing back of the video served for counting scratching behaviour. […] Cumulative frequency and duration (secs) of scratching was scored in 5 min epochs. Treatment groups were randomised based on a Latin Square design. The experimenter was blinded to the treatment groups.
Repeated measures ANOVA followed by Planned comparison test using GraphPad Prism. (p<0.05 considered significant). Data were analysed by comparing treatment groups to control group at each time point.

Chain of NK-1 receptor (Q5DUB1 whole entry): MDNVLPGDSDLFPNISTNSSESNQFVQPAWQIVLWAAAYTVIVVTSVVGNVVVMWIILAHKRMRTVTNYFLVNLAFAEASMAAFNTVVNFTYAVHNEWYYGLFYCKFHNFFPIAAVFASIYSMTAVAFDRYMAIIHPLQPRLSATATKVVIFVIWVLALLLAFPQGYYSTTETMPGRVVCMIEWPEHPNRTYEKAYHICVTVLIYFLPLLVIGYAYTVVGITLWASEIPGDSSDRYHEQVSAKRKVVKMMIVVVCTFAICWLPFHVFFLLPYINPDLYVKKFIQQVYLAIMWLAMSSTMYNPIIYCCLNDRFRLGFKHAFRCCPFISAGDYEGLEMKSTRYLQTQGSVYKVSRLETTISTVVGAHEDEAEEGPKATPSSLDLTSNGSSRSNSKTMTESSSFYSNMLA

inhibition of GR73632 induced hindlimb scratching: profound inhibition
SMILES: Cc1cc(F)ccc1[C@H]1C[C@@H](N2CCN3C(=O)CC[C@H]3C2)CCN1C(=O)N(C)[C@H](C)c1cc(C(F)(F)F)cc(C(F)(F)F)c1 [Orvepitant, 2-(R)-(4-Fluoro-2-methyl-phenyl)-4-(S)-((8aS)-6-oxo-hexahydro-pyrrolo[1,2-a]-pyrazin-2-yl)-piperidine-1-carboxylic acid [1-(R)-(3,5-bis-trifluoromethyl-phenyl)-ethyl]-methylamide]
